{"source": "paper PMC6022752", "about": "(Journal of the American Chemical Society, 2018)", "key": {"kinases": {"tested_on": "kinases", "experiment": "Other kinase assays", "format": "biochemical", "conditions": "Figures S10 and S11"}, "[1]": {"tested_on": "MCF-7, SW620, SW480, H460, A549, and MDA-MB-231 cell lines", "experiment": "GGOH rescue of cell growth inhibition", "format": "cell-based", "conditions": "six cell lines, 20 μM GGOH"}, "[2]": {"conditions": "cited from earlier work"}, "EGFR (L858R, T790M)": {"target": "EGFR (L858R, T790M) (Homo sapiens, UniProt P00533, L858R/T790M)", "experiment": "HotSpot 10-dose dose-response kinase assay: EGFR", "format": "biochemical", "conditions": "read-out: Dose-response IC50 EGFR (L858R, T790M); 10-dose dose-response, 1 μM ATP"}, "TYK2": {"target": "TYK2 (Homo sapiens, UniProt P29597)", "experiment": "369-kinase HotSpot kinome screen: TYK2", "format": "biochemical", "conditions": "read-out: Tyk2 inhibition, from kinome screen"}, "DDR2": {"target": "DDR2 (Homo sapiens, UniProt Q16832)", "experiment": "HotSpot 10-dose dose-response kinase assay: DDR2", "format": "biochemical", "conditions": "read-out: Dose-response IC50 DDR2; 10-dose dose-response, 1 μM ATP"}, "JAK2": {"target": "JAK2 (Homo sapiens, UniProt O60674)", "experiment": "HotSpot 10-dose dose-response kinase assay: JAK2", "format": "biochemical", "conditions": "read-out: Dose-response IC50 JAK2; 10-dose dose-response, 1 μM ATP"}, "JAK1": {"target": "JAK1 (Homo sapiens, UniProt P23458)", "sequence (P23458 whole entry)": "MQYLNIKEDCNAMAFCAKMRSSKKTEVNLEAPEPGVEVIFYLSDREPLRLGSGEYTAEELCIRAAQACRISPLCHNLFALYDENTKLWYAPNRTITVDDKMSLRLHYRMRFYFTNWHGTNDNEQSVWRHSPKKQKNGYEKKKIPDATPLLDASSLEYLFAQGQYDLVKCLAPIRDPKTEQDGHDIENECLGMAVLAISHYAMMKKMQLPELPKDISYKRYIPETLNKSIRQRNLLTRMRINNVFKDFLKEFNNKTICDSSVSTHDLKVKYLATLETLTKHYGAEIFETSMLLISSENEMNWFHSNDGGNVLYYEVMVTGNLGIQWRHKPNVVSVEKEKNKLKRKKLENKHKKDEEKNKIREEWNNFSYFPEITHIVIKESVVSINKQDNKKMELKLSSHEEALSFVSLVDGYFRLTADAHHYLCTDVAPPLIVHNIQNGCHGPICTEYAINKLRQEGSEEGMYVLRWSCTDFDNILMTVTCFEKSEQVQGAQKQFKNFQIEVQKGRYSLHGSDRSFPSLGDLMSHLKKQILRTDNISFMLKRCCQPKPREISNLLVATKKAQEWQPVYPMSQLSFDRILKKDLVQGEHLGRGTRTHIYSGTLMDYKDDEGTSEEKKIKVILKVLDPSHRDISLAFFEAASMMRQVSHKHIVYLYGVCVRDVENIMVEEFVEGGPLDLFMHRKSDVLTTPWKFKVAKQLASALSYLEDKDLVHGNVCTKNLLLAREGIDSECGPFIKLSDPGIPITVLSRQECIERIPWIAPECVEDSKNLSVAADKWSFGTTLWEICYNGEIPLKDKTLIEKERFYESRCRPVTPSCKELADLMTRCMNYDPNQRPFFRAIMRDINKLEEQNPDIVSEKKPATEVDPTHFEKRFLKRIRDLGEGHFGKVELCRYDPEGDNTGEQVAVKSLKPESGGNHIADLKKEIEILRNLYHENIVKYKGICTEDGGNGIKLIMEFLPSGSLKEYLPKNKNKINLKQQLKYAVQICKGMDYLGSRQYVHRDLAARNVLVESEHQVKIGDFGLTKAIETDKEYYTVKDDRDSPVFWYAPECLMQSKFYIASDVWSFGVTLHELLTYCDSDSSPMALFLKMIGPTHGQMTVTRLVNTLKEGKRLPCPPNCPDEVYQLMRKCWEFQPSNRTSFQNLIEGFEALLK", "experiment": "HotSpot 10-dose dose-response kinase assay: JAK1", "format": "biochemical", "conditions": "read-out: Dose-response IC50 JAK1; 10-dose dose-response, 1 μM ATP"}, "PKCepsilon": {"target": "PKCepsilon (Homo sapiens, UniProt Q02156)", "experiment": "HotSpot 10-dose dose-response kinase assay: PKCepsilon", "format": "biochemical", "conditions": "read-out: Dose-response IC50 PKCepsilon; 10-dose dose-response, 1 μM ATP"}, "EGFR (G719S)": {"target": "EGFR (G719S) (Homo sapiens, UniProt P00533, G719S)", "experiment": "HotSpot 10-dose dose-response kinase assay: EGFR", "format": "biochemical", "conditions": "read-out: Dose-response IC50 EGFR (G719S); 10-dose dose-response, 1 μM ATP"}, "BRAF (V599E)": {"target": "BRAF (V599E) (Homo sapiens, UniProt P15056, V600E)", "sequence (P15056 416-766 V600E limits assumed)": "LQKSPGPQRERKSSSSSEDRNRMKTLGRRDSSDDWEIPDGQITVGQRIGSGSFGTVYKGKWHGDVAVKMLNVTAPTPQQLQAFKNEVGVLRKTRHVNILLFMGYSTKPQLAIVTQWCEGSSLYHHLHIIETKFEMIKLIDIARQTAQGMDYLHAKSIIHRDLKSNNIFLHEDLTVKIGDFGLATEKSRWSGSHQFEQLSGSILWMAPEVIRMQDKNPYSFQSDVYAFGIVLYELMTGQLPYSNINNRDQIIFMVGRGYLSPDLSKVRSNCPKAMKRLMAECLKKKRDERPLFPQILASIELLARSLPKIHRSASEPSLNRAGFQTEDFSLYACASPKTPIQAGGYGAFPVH", "experiment": "HotSpot 10-dose dose-response kinase assay: BRAF", "format": "biochemical", "conditions": "read-out: Dose-response IC50 BRAF (V599E); 10-dose dose-response, 1 μM ATP"}, "EGFR (d746–750)": {"target": "EGFR (d746–750) (Homo sapiens, UniProt P00533, DEL746-750)", "experiment": "HotSpot 10-dose dose-response kinase assay: EGFR", "format": "biochemical", "conditions": "read-out: Dose-response IC50 EGFR (d746–750); 10-dose dose-response, 1 μM ATP"}, "RET": {"target": "RET (Homo sapiens, UniProt P07949)", "sequence (P07949 29-1114)": "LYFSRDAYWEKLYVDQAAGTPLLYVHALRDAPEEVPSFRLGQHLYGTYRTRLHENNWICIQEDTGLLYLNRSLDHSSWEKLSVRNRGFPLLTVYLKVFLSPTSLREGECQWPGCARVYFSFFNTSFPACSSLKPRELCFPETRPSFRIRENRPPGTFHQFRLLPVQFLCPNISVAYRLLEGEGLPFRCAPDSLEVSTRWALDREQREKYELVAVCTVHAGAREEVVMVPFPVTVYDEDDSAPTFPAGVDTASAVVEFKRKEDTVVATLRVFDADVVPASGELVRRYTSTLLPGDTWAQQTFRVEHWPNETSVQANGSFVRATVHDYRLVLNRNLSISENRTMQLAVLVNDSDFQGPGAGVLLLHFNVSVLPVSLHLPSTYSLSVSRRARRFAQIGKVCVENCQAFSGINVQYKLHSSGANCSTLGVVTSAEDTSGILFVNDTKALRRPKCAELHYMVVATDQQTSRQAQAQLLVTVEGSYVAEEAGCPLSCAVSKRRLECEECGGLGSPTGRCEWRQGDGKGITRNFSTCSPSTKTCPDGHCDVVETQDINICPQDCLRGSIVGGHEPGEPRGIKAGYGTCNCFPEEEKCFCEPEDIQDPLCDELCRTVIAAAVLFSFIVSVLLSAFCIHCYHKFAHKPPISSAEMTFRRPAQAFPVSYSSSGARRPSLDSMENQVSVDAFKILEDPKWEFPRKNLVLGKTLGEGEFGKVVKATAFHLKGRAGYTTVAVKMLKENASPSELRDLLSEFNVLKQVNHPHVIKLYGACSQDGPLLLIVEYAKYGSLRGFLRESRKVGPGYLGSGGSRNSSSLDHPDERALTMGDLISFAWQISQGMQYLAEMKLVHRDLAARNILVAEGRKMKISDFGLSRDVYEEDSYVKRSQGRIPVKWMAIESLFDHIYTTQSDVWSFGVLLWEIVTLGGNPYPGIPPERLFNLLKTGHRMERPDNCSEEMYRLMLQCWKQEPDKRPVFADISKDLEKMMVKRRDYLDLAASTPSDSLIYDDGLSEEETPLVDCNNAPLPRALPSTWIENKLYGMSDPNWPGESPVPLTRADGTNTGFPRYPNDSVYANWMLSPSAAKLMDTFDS", "experiment": "HotSpot 10-dose dose-response kinase assay: RET", "format": "biochemical", "conditions": "read-out: Dose-response IC50 RET; 10-dose dose-response, 1 μM ATP"}, "ANT": {"tested_on": "ANT", "conditions": "read-out: IC50 ANT inhibition; cited from earlier work"}, "JAK3": {"target": "JAK3 (Homo sapiens, UniProt P52333)", "sequence (P52333 whole entry)": "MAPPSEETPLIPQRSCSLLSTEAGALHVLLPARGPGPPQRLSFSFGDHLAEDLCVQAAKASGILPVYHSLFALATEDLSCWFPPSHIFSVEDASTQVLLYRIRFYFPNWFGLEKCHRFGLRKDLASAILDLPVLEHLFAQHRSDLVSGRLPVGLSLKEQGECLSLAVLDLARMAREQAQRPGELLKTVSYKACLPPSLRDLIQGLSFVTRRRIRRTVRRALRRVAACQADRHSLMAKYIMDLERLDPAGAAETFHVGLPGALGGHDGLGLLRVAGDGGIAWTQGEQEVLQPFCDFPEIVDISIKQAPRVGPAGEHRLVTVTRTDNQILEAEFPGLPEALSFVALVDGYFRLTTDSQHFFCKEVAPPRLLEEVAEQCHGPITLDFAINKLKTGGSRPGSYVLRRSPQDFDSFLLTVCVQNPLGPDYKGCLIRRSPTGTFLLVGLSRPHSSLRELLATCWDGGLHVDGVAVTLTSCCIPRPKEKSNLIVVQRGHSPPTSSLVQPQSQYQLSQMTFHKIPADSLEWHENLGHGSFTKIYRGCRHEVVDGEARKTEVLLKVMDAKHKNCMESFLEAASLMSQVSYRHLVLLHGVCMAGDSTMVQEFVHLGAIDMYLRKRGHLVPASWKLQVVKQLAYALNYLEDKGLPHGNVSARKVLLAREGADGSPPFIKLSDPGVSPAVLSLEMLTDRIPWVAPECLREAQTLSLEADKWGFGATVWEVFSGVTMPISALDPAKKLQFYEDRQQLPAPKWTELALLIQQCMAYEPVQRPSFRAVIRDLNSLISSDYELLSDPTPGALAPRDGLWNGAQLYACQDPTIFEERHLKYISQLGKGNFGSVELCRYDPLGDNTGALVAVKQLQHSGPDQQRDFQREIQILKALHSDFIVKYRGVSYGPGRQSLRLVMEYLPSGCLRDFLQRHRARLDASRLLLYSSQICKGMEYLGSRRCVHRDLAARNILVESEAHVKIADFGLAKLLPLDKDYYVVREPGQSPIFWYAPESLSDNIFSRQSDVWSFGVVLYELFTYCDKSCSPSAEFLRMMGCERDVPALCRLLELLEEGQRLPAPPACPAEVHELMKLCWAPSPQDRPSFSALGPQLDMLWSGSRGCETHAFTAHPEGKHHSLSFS", "experiment": "HotSpot 10-dose dose-response kinase assay: JAK3", "format": "biochemical", "conditions": "read-out: Dose-response IC50 JAK3; 10-dose dose-response, 1 μM ATP"}, "ABL1": {"target": "ABL1 (Homo sapiens, UniProt P00519)", "sequence (P00519 whole entry)": "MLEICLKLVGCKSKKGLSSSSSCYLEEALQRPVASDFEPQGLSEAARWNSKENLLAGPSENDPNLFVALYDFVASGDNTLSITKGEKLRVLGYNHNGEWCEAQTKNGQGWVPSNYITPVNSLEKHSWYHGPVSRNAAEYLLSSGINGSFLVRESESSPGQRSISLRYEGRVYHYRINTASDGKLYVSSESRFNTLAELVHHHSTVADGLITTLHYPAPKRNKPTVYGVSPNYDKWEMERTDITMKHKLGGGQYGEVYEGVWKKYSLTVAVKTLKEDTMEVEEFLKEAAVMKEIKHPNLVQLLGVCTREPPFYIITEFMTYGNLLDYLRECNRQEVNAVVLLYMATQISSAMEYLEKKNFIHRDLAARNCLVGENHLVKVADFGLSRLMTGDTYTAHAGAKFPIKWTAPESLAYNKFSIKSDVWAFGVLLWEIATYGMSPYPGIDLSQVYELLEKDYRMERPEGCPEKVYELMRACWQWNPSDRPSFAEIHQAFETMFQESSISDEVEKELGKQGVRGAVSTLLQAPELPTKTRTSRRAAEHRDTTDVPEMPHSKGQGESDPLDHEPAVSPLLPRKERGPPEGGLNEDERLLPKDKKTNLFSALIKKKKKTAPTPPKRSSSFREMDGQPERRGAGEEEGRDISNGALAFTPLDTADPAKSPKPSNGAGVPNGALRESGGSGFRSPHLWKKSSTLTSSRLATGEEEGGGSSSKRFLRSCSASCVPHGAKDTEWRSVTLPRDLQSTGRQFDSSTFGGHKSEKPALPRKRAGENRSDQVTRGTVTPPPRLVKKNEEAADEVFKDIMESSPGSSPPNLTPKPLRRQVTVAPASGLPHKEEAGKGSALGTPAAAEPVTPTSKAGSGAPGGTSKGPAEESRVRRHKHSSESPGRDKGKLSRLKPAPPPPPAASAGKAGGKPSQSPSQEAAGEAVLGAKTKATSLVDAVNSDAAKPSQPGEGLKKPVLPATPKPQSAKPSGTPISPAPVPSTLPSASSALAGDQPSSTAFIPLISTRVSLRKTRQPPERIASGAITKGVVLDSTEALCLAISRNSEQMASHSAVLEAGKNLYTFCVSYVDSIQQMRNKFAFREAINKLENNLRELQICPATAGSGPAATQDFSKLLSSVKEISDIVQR", "experiment": "HotSpot 10-dose dose-response kinase assay: ABL1", "format": "biochemical", "conditions": "read-out: Dose-response IC50 ABL1; 10-dose dose-response, 1 μM ATP"}, "EGFR (T790M)": {"target": "EGFR (T790M) (Homo sapiens, UniProt P00533, T790M)", "experiment": "HotSpot 10-dose dose-response kinase assay: EGFR", "format": "biochemical", "conditions": "read-out: Dose-response IC50 EGFR (T790M); 10-dose dose-response, 1 μM ATP"}, "PDGFRa": {"target": "PDGFRa (Homo sapiens, UniProt P16234)", "experiment": "HotSpot 10-dose dose-response kinase assay: PDGFRa", "format": "biochemical", "conditions": "read-out: Dose-response IC50 PDGFRa; 10-dose dose-response, 1 μM ATP"}, "EGFR (L858R)": {"target": "EGFR (L858R) (Homo sapiens, UniProt P00533, L858R)", "experiment": "HotSpot 10-dose dose-response kinase assay: EGFR", "format": "biochemical", "conditions": "read-out: Dose-response IC50 EGFR (L858R); 10-dose dose-response, 1 μM ATP"}, "BRAF": {"target": "BRAF (Homo sapiens, UniProt P15056)", "experiment": "HotSpot 10-dose dose-response kinase assay: BRAF", "format": "biochemical", "conditions": "read-out: Dose-response IC50 BRAF; 10-dose dose-response, 1 μM ATP"}, "EGFR": {"target": "EGFR (Homo sapiens, UniProt P00533)", "experiment": "EGFR wild type kinase-domain inhibition assay"}}}
{"smiles": "Nc1ncnc2c1ncn2C1OC(COP(=O)(O)OP(=O)(O)C(Sc2ccc(Cl)cc2)P(=O)(O)O)C(O)C1O", "note": "(stereo not shown) [compound 5]", "values": [{"measurement": "activity in other kinase assays", "setting": "kinases", "result": "low activity"}]}
{"smiles": "NCCC(O)(P(=O)(O)O)P(=O)(O)O", "note": "[pamidronate]", "values": [{"measurement": "GGOH rescue of growth inhibition", "setting": "[1]", "result": "very small rescue effects"}]}
{"smiles": "Nc1ncnc2c1ncn2[C@@H]1O[C@H](COP(=O)(O)OP(=O)(O)OP(=O)(O)O)[C@@H](O)[C@H]1O", "note": "[ATP]", "values": [{"measurement": "pKa4", "setting": "[2]", "result": 7.1}]}
{"smiles": "Nc1ncnc2c1ncn2[C@@H]1O[C@H](COP(=O)(O)OP(=O)(O)C(Br)(Br)P(=O)(O)O)[C@@H](O)[C@H]1O", "note": "[compound 23]", "values": [{"measurement": "IC50", "setting": "EGFR (L858R, T790M)", "result": 16, "unit": "nM"}]}
{"smiles": "Nc1ncnc2c1ncn2[C@@H]1O[C@H](COP(=O)(O)OP(=O)(O)C(Cl)(Cl)P(=O)(O)O)[C@@H](O)[C@H]1O", "note": "[compound 4, adenosine 5′-(beta, gamma-dichloro-methylene) diphosphate]", "values": [{"measurement": "IC50", "setting": "TYK2", "result": "~230", "unit": "nM"}, {"measurement": "IC50", "setting": "EGFR (L858R, T790M)", "result": 80, "unit": "nM"}, {"measurement": "IC50", "setting": "DDR2", "result": 47, "unit": "nM"}, {"measurement": "IC50", "setting": "JAK2", "result": 13, "unit": "nM"}, {"measurement": "IC50", "setting": "JAK1", "result": 66, "unit": "nM"}, {"measurement": "IC50", "setting": "PKCepsilon", "result": 43, "unit": "nM"}, {"measurement": "IC50", "setting": "EGFR (G719S)", "result": 760, "unit": "nM"}, {"measurement": "IC50", "setting": "BRAF (V599E)", "result": 230000, "unit": "nM"}, {"measurement": "IC50", "setting": "EGFR (d746–750)", "result": 4300, "unit": "nM"}, {"measurement": "IC50", "setting": "RET", "result": 140, "unit": "nM"}, {"measurement": "IC50", "setting": "ANT", "result": "~50000", "unit": "nM"}, {"measurement": "IC50", "setting": "JAK3", "result": 5, "unit": "nM"}, {"measurement": "IC50", "setting": "ABL1", "result": 79, "unit": "nM"}, {"measurement": "IC50", "setting": "EGFR (T790M)", "result": 270, "unit": "nM"}, {"measurement": "IC50", "setting": "PDGFRa", "result": 4, "unit": "nM"}, {"measurement": "IC50", "setting": "EGFR (L858R)", "result": 490, "unit": "nM"}, {"measurement": "IC50", "setting": "BRAF", "result": 6400, "unit": "nM"}]}
{"smiles": "O=P(O)(O)C(O)(Cn1ccnc1)P(=O)(O)O", "note": "[compound 6, zoledronate]", "values": [{"measurement": "IC50", "setting": "EGFR", "result": "72000 ± 12000", "unit": "nM"}]}
